Measured values: patent US20130172320A1, “PYRIDO [4,3-B] INDOLE AND PYRIDO [3,4-B] INDOLE DERIVATIVES AND METHODS OF USE” (priority 2010, published 2013)

Tests used:
[1] = target: human recombinant serotonin (5-Hydroxytryptamine) 5-HT7 receptor (Homo sapiens, UniProt P34969); experiment: Serotonin 5-HT7 radioligand binding ([3H]LSD); details: compound at 0.1 μM; read-out: Percentage inhibition of ligand binding, Serotonin (0.1 μM) 5-HT7
Procedure: To evaluate in radioligand binding assays the activity of compounds of the invention, human recombinant serotonin (5-Hydroxytryptamine) 5-HT7 receptor expressed in Chinese hamster ovary (CHO) cells (Roth, B. et al, J. Pharmacol. Exp. Ther. 268:1403, 1994; Shen, Y. et al, J. Biol. Chem. 268:18200, 1993) in a modified Tris-HCl buffer (50 mM Tris-HCl, pH 7.4, 10 mM MgCl2, 0.5 mM EDTA) was used. Compounds of invention were incubated with 5.5 nM [^3H] Lysergic acid diethylamide (LSD) for 2 h at 25° C. Non-specific binding was estimated in the presence of 10 μM Serotonin (5-HT). Receptor proteins were filtered and washed, the filters were then counted to determine [^3H]LSD specifically bound. Compounds were screened at 1 μM or lower, using 1% DMSO as vehicle. Biochemical assay results are presented as the percent inhibition of specific binding in Table 4.

[2] = target: human recombinant histamine H1 receptor (Homo sapiens, UniProt P35367); experiment: Histamine H1 radioligand binding ([3H]Pyrilamine); details: compound at 0.1 μM; 1.2 nM [3H]Pyrilamine; read-out: Binding data (Percentage inhibition) Histamine H1 (0.1 μM)
Sequence of human recombinant histamine H1 receptor (P35367 whole entry): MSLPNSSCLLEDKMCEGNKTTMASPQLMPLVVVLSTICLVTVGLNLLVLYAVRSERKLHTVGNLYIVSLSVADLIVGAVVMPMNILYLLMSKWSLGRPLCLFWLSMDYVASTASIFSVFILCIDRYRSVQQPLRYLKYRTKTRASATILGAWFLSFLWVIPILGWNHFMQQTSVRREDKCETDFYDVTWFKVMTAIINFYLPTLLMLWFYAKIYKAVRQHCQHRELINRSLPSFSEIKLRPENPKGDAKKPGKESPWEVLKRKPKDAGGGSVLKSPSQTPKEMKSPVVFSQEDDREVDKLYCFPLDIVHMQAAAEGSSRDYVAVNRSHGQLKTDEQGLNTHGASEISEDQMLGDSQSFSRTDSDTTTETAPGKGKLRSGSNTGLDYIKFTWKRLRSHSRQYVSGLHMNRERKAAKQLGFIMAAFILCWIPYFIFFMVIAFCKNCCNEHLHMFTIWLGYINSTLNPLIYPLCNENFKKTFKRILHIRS
Procedure: To evaluate in radioligand binding assays the activity of compounds of the invention, human recombinant histamine H1 receptor expressed in Chinese hamster ovary (CHO) cells (De Backer, M. et al, Biochem. Biophys. Res. Comm. 197(3):1601, 1993) in a modified Tris-HCl buffer (50 mM Tris-HCl, pH 7.4, 2 mM MgCl2, 100 mM NaCl, 250 mM Sucrose) was used. Compounds of the invention were incubated with 1.2 nM [^3H]Pyrilamine for 180 min at 25° C. Non-specific binding was estimated in the presence of 1 μM Pyrilamine. Receptor proteins were filtered and washed, the filters were then counted to determine [^3H]Pyrilamine specifically bound. Compounds were screened at 1 μM or lower, using 1% DMSO as vehicle. Biochemical assay results are presented as the percent inhibition of specific binding in Table 2.

Sequence of human recombinant serotonin (5-Hydroxytryptamine) 5-HT7 receptor (P34969 whole entry): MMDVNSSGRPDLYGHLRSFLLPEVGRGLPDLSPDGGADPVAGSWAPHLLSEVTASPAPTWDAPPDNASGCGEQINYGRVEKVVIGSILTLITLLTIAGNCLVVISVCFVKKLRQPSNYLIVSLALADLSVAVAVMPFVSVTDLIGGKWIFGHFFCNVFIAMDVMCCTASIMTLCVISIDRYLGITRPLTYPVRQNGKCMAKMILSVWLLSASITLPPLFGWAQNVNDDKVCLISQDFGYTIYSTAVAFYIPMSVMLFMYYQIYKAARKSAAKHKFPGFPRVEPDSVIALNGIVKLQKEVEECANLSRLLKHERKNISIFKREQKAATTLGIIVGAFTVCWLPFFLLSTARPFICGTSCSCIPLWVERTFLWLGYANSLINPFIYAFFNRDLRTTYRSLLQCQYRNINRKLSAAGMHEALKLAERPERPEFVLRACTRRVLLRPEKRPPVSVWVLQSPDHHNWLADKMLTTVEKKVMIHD

SMILES | inhibition at 0.1 µM [1] | inhibition at 0.1 µM [2]
C#CCC1(C)CN(C)Cc2c1n(C)c1ccc(C)cc21 (stereo not shown) [Compound 47, 2,4,5,8-tetramethyl-4-(prop-2-ynyl)-2,3,4,5-tetrahydro-1H-pyrido[4,3-b]indole] | 13% | 49%
Cc1ccc2c(c1)c1c(n2C)C(C)(CCc2nc(-c3ccccc3)cs2)CN(C)C1 (stereo not shown) [Compound 48] | 17% | 89%
